# Measured values from patent publication US9315520B2, “2-amino-6-methyl-4,4a,5,6-tetrahydropyrano[3,4-d][1,3]thiazin-8a(8H)-yl-1,3-thiazol-4-yl amides” (Pfizer Inc., priority 2014, dated 2016).
# pIC50: −log10 of the molar value. Structures can show the parent of a compound that is named as a salt.
# Molecular target: BACE1 (Homo sapiens (Human), UniProt P56817)
# Assay: BACE1 Cell-Free Assay (fluorescence polarization)
# Assay type: biochemical
# Details: geometric mean of 2-4 determinations unless otherwise indicated (b: ≧5; c: single determination); read-out: BACE1 Cell-free Assay IC50
# From the text: This assay measures the inhibition of the beta-secretase enzyme as it cleaves a non-native peptide.
# A synthetic APP substrate that can be cleaved by beta-secretase having N-terminal biotin and made fluorescent by the covalent attachment of Oregon Green at the Cys residue is used to assay beta-secretase activity in the presence or absence of the inhibitory compounds. […] The BACE1 enzyme is affinity purified material from conditioned media of CHO-K1 cells that have been transfected with a soluble BACE construct (BACE1deltaTM96His). […] Plates are covered and incubated for 3 hours at 37° C. […] The activity of the beta-secretase enzyme is detected by changes in the fluorescence polarization that occur when the substrate is cleaved by the enzyme.
# Chain of BACE1 (P56817 46-457): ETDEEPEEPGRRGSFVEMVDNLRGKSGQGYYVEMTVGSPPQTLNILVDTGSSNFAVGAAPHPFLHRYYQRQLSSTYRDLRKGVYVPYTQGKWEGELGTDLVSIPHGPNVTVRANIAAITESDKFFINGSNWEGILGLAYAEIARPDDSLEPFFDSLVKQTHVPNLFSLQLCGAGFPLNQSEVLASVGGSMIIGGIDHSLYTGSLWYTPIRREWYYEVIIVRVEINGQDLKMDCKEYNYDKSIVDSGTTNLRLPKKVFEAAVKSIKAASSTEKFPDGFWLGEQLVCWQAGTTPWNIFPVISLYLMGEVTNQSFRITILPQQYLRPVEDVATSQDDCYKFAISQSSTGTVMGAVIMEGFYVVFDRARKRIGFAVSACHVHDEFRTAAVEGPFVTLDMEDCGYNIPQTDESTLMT
row,SMILES,pIC50
1,"C[C@H]1C[C@H]2CSC(N)=N[C@@]2(c2nc(NC(=O)c3coc(CF)n3)cs2)CO1 [Example 3, N-{2-[(4aR,6S,8aR)-2-amino-6-methyl-4,4a,5,6-tetrahydropyrano[3,4-d][1,3]thiazin-8a(8H)-yl]-1,3-thiazol-4-yl}-2-(fluoromethyl)-1,3-oxazole-4-carboxamide]",8.15
2,"C[C@H]1C[C@H]2CSC(N)=N[C@@]2(c2nc(NC(=O)c3cnc(OCC(F)F)cn3)cs2)CO1 [Example 12, N-{2-[(4aR,6S,8aR)-2-amino-6-methyl-4,4a,5,6-tetrahydropyrano[3,4-d][1,3]thiazin-8a(8H)-yl]-1,3-thiazol-4-yl}-5-(2,2-difluoroethoxy)pyrazine-2-carboxamide]",6.55
3,"C[C@H]1C[C@H]2CSC(N)=N[C@@]2(c2nc(NC(=O)c3ccc(OC(F)F)cc3)cs2)CO1 [Example 21, N-{2-[(4aR,6S,8aR)-2-amino-6-methyl-4,4a,5,6-tetrahydropyrano[3,4-d][1,3]thiazin-8a(8H)-yl]-1,3-thiazol-4-yl}-4-(difluoromethoxy)benzamide]",6.97
4,"CC#CCOc1cnc(C(=O)Nc2csc([C@]34CO[C@@H](C)C[C@H]3CSC(N)=N4)n2)cn1 [Example 22, N-{2-[(4aR,6S,8aR)-2-amino-6-methyl-4,4a,5,6-tetrahydropyrano[3,4-d][1,3]thiazin-8a(8H)-yl]-1,3-thiazol-4-yl}-5-(but-2-yn-1-yloxy)pyrazine-2-carboxamide]",7.89
5,"C[C@H]1C[C@H]2CSC(N)=N[C@@]2(c2nc(NC(=O)c3cc4ccccn4n3)cs2)CO1 [Example 23, N-{2-[(4aR,6S,8aR)-2-amino-6-methyl-4,4a,5,6-tetrahydropyrano[3,4-d][1,3]thiazin-8a(8H)-yl]-1,3-thiazol-4-yl}pyrazolo[1,5-a]pyridine-2-carboxamide]",6.00
6,"C[C@H]1C[C@H]2CSC(N)=N[C@@]2(c2nc(NC(=O)c3coc(C4CC4)n3)cs2)CO1 [Example 27, N-{2-[(4aR,6S,8aR)-2-amino-6-methyl-4,4a,5,6-tetrahydropyrano[3,4-d][1,3]thiazin-8a(8H)-yl]-1,3-thiazol-4-yl}-2-cyclopropyl-1,3-oxazole-4-carboxamide]",5.88
7,"Cc1nn(C)cc1C(=O)Nc1csc([C@]23CO[C@@H](C)C[C@H]2CSC(N)=N3)n1 [Example 29, N-{2-[(4aR,6S,8aR)-2-amino-6-methyl-4,4a,5,6-tetrahydropyrano[3,4-d][1,3]thiazin-8a(8H)-yl]-1,3-thiazol-4-yl}-1,3-dimethyl-1H-pyrazole-4-carboxamide]",5.70
8,"C[C@H]1C[C@H]2CSC(N)=N[C@@]2(c2nc(NC(=O)c3cccnn3)cs2)CO1 [Example 30, N-{2-[(4aR,6S,8aR)-2-amino-6-methyl-4,4a,5,6-tetrahydropyrano[3,4-d][1,3]thiazin-8a(8H)-yl]-1,3-thiazol-4-yl}pyridazine-3-carboxamide]",5.67
9,"C[C@H]1C[C@H]2CSC(N)=N[C@@]2(c2nc(NC(=O)c3cc(C4CC4)on3)cs2)CO1 [Example 31, N-{2-[(4aR,6S,8aR)-2-amino-6-methyl-4,4a,5,6-tetrahydropyrano[3,4-d][1,3]thiazin-8a(8H)-yl]-1,3-thiazol-4-yl}-5-cyclopropyl-1,2-oxazole-3-carboxamide]",5.42

# Second part, the compound after the results:
row,pIC50,SMILES
1,8.05,"C[C@H]1C[C@H]2CSC(N)=N[C@@]2(c2nc(NC(=O)c3ccn(C(F)F)n3)cs2)CO1 [Example 4, N-{2-[(4aR,6S,8aR)-2-amino-6-methyl-4,4a,5,6-tetrahydropyrano[3,4-d][1,3]thiazin-8a(8H)-yl]-1,3-thiazol-4-yl}-1-(difluoromethyl)-1H-pyrazole-3-carboxamide]"
2,7.66,"C[C@H]1C[C@H]2CSC(N)=N[C@@]2(c2nc(NC(=O)c3ccc(C#N)cn3)cs2)CO1 [Example 5, N-{2-[(4aR,6S,8aR)-2-amino-6-methyl-4,4a,5,6-tetrahydropyrano[3,4-d][1,3]thiazin-8a(8H)-yl]-1,3-thiazol-4-yl}-5-cyanopyridine-2-carboxamide]"
3,6.72,"C[C@H]1C[C@H]2CSC(N)=N[C@@]2(c2nc(NC(=O)c3ccc(F)cn3)cs2)CO1 [Example 9, N-{2-[(4aR,6S,8aR)-2-amino-6-methyl-4,4a,5,6-tetrahydropyrano[3,4-d][1,3]thiazin-8a(8H)-yl]-1,3-thiazol-4-yl}-5-fluoropyridine-2-carboxamide]"
4,6.27,"COc1cnc(C(=O)Nc2csc([C@]34CO[C@@H](C)C[C@H]3CSC(N)=N4)n2)cn1 [Example 10, N-{2-[(4aR,6S,8aR)-2-amino-6-methyl-4,4a,5,6-tetrahydropyrano[3,4-d][1,3]thiazin-8a(8H)-yl]-1,3-thiazol-4-yl}-5-methoxypyrazine-2-carboxamide]"
5,6.50,"C[C@H]1C[C@H]2CSC(N)=N[C@@]2(c2nc(NC(=O)c3cnc(CF)cn3)cs2)CO1 [Example 11, N-{2-[(4aR,6S,8aR)-2-amino-6-methyl-4,4a,5,6-tetrahydropyrano[3,4-d][1,3]thiazin-8a(8H)-yl]-1,3-thiazol-4-yl}-5-(fluoromethyl)pyrazine-2-carboxamide]"
6,6.84,"C[C@H]1C[C@H]2CSC(N)=N[C@@]2(c2nc(NC(=O)c3cnc(C(F)F)cn3)cs2)CO1 [Example 15, N-{2-[(4aR,6S,8aR)-2-amino-6-methyl-4,4a,5,6-tetrahydropyrano[3,4-d][1,3]thiazin-8a(8H)-yl]-1,3-thiazol-4-yl}-5-(difluoromethyl)pyrazine-2-carboxamide]"
7,7.27,"C[C@H]1C[C@H]2CSC(N)=N[C@@]2(c2nc(NC(=O)c3ccc(C(F)(F)F)cn3)cs2)CO1 [Example 17, N-{2-[(4aR,6S,8aR)-2-amino-6-methyl-4,4a,5,6-tetrahydropyrano[3,4-d][1,3]thiazin-8a(8H)-yl]-1,3-thiazol-4-yl}-5-(trifluoromethyl)pyridine-2-carboxamide]"
8,6.82,"C[C@H]1C[C@H]2CSC(N)=N[C@@]2(c2nc(NC(=O)c3ncc(F)cc3F)cs2)CO1 [Example 18, N-{2-[(4aR,6S,8aR)-2-amino-6-methyl-4,4a,5,6-tetrahydropyrano[3,4-d][1,3]thiazin-8a(8H)-yl]-1,3-thiazol-4-yl}-3,5-difluoropyridine-2-carboxamide]"
9,6.59,"COc1ccc(C(=O)Nc2csc([C@]34CO[C@@H](C)C[C@H]3CSC(N)=N4)n2)nc1 [Example 19, N-{2-[(4aR,6S,8aR)-2-amino-6-methyl-4,4a,5,6-tetrahydropyrano[3,4-d][1,3]thiazin-8a(8H)-yl]-1,3-thiazol-4-yl}-5-methoxypyridine-2-carboxamide]"
10,6.97,"C[C@H]1C[C@H]2CSC(N)=N[C@@]2(c2nc(NC(=O)c3ccc(OC(F)(F)F)cn3)cs2)CO1 [Example 20, N-{2-[(4aR,6S,8aR)-2-amino-6-methyl-4,4a,5,6-tetrahydropyrano[3,4-d][1,3]thiazin-8a(8H)-yl]-1,3-thiazol-4-yl}-5-(trifluoromethoxy)pyridine-2-carboxamide]"
11,7.09,"C[C@H]1C[C@H]2CSC(N)=N[C@@]2(c2nc(NC(=O)c3ccn(C)n3)cs2)CO1 [Example 24, N-{2-[(4aR,6S,8aR)-2-amino-6-methyl-4,4a,5,6-tetrahydropyrano[3,4-d][1,3]thiazin-8a(8H)-yl]-1,3-thiazol-4-yl}-1-methyl-1H-pyrazole-3-carboxamide]"
12,7.13,"C[C@H]1C[C@H]2CSC(N)=N[C@@]2(c2nc(NC(=O)c3ccc(C(F)F)cn3)cs2)CO1 [Example 25, N-{2-[(4aR,6S,8aR)-2-amino-6-methyl-4,4a,5,6-tetrahydropyrano[3,4-d][1,3]thiazin-8a(8H)-yl]-1,3-thiazol-4-yl}-5-(difluoromethyl)pyridine-2-carboxamide]"
13,7.17,"C[C@H]1C[C@H]2CSC(N)=N[C@@]2(c2nc(NC(=O)c3ccc(OCF)cn3)cs2)CO1 [Example 26, N-{2-[(4aR,6S,8aR)-2-amino-6-methyl-4,4a,5,6-tetrahydropyrano[3,4-d][1,3]thiazin-8a(8H)-yl]-1,3-thiazol-4-yl}-5-(fluoromethoxy)pyridine-2-carboxamide]"
14,6.19,"C[C@H]1C[C@H]2CSC(N)=N[C@@]2(c2nc(NC(=O)c3cnccn3)cs2)CO1 [Example 28, N-{2-[(4aR,6S,8aR)-2-amino-6-methyl-4,4a,5,6-tetrahydropyrano[3,4-d][1,3]thiazin-8a(8H)-yl]-1,3-thiazol-4-yl}pyrazine-2-carboxamide]"

# Same assay, conditions: read-out: BACE1 Cell-free Assay IC50
row,SMILES,pIC50
1,"Cc1cc(F)cnc1C(=O)Nc1csc([C@]23CO[C@@H](C)C[C@H]2CSC(N)=N3)n1 [Example 13, N-{2-[(4aR,6S,8aR)-2-amino-6-methyl-4,4a,5,6-tetrahydropyrano[3,4-d][1,3]thiazin-8a(8H)-yl]-1,3-thiazol-4-yl}-5-fluoro-3-methylpyridine-2-carboxamide, formate salt]",7.05
2,"C[C@H]1C[C@H]2CSC(N)=N[C@@]2(c2nc(NC(=O)c3ccc(F)cc3)cs2)CO1 [Example 14, N-{2-[(4aR,6S,8aR)-2-amino-6-methyl-4,4a,5,6-tetrahydropyrano[3,4-d][1,3]thiazin-8a(8H)-yl]-1,3-thiazol-4-yl}-4-fluorobenzamide, formate salt]",6.06
3,"C[C@H]1C[C@H]2CSC(N)=N[C@@]2(c2nc(NC(=O)c3cnc(C(F)(F)F)cn3)cs2)CO1 [Example 16, N-{2-[(4aR,6S,8aR)-2-amino-6-methyl-4,4a,5,6-tetrahydropyrano[3,4-d][1,3]thiazin-8a(8H)-yl]-1,3-thiazol-4-yl}-5-(trifluoromethyl)pyrazine-2-carboxamide, formate salt]",6.71
